According to patent publication US20180280364A1, “PHARMACEUTICAL COMPOSITIONS OF SODIUM PICOSULFATE, MAGNESIUM OXIDE AND CITRIC ACID” (Hetero Labs Limited, priority 2017, published 2018):

Experiment: Compatibility study of sodium picosulfate with citric acid
Assay type: physicochemical
Conditions: produced a wet mass with high known impurities
Text: As sodium picosulfate is having sensitivity towards an acidic nature ingredient, there is a need to formulate the composition of sodium picosulfate not in direct contact with the citric acid.

Structure (SMILES): O=S(=O)(O)Oc1ccc(C(c2ccc(OS(=O)(=O)O)cc2)c2ccccn2)cc1 [sodium picosulfate]
- Compatibility / stability with citric acid: not compatible or stable with citric acid physically and chemically
